# Read-outs that look alike come from different tables or passages of the source.
# Legend:
# OSC-3 cells [1] = assay: Cell TEM study of mitochondria morphology; type: cell-based; settings: 0.5 μM, 24 h
# subcutaneous OSC-3 tumor [2] = assay: In vivo anticancer study, subcutaneous oral cancer model; parameters: species or system nude mice; settings: for H&E staining of tumors: 24 h drug, then laser; for antitumor effect: with laser; for antitumor efficacy: without laser
# Text: (§1) Female athymic nude mice, 6-week-old, were purchased from Envigo (Indianapolis, IN, USA). All animal experiments were strictly performed in compliance with the protocol (#20265) approved by the Institutional Animal Care and Use Committee at the University of California, Davis. The subcutaneous and orthotopic tumor models were established by inoculated OSC-3 cells into both flanks (5×10^6 cells per tumor) or lower lips (1×10^6 cells per tumor) of nude mice. When the subcutaneous tumors reached about 80 mm^3 and orthotopic tumors reached about 50 mm^3, the mice started to be treated as indicated.
# Laser (680 nm) treatment was conduct by a laser device within an energy of 0.2 W cm^−2 for 6 min (Shanghai Xilong Optoelectronics Technology, China). […] The drug was intratumorally injected into mice at a dose of 1 mM (10 nmol per 50 mm^3 tumor). Laser treatment was performed for a total of four times, one each on days 1, 2, 5, and 6 post-injection of drugs. The relative tumor value and body weight were recorded every two days. In subcutaneous models, the tumors in the right flank of mice were subjected to laser treatment, while the left tumors were not. In orthotopic models, all tumors were treated with the laser treatment. The temperature of tumor surface was monitored using a thermal camera (FLIR Systems, USA) immediately after laser treatment. ROS production in the tumor after light treatment was also measured using DCF-DA as an indicator. Briefly, the tumor was treated with different drugs via intratumoral injection at first. Then, the mice with tumors were treated with the laser at 1st, 2nd, 5th, and 6th day independently. After each light treatment, the mice were sacrificed immediately, and the obtained tumors were cut into small pieces and immersed in the DCF-DA solutions for 10 min. Finally, the tumors pieces were imaged by the ChemiDoc™ MP imaging system with the FITC channel. The fluorescence intensity of DCF-DA was quantified by Image J software. Mice were sacrificed after the first light treatment to obtain tumor and organs tissue for TEM, H&E, and IHC evaluation.
# OSC-3 cells [3] = assay: Cell viability assay (CellTiter-Glo), OSC-3; type: cell-based; settings: for IC50: read-out: IC50 cytotoxicity; for anticancer effect: OSC-3, with light, 0.3 μM to 1 μM
# Method: OSC-3, BXPC-3, AsPC-1, PANC-1, UM-UC-3, 5637, or IMR90 cells were seeded in 96-well plates at a density of 5×10^3 cells per well and were grown overnight. Cells were incubated with various concentrations of drugs for 24 h, followed washing with PBS three times, and adding 100 μL fresh medium. For light-treated groups, cells were irradiated for 30 s using a 633-nm LED array (Omnilux new-U) at a power density of 30 mW cm^−2 at room temperature and then were cultured for another 24 h in parallel with non-light treated groups. Cell viability was quantified using the CellTiter-Glo assay (Promega, USA).
# OSC-3 cells [4] = assay: Mitochondrial membrane potential assay (JC-1); type: cell-based; settings: 1 μM, with light
# Method: The mitochondrial membrane potential was determined using the dye JC-1 as a probe (Thermo Fisher Scientific, USA). Briefly, OSC-3 cells (2×10^4 cells per well) were treated with drugs (1 μM) for 24 h. […] JC-1 (5 μg mL^−1) was added to incubate for 20 min. Cell imaging was performed on a CLSM (Carl Zeiss, Germany). The ratio of red/green fluorescence intensity was calculated by ImageJ software.
# subcutaneous OSC-3 tumor [5] = assay: In vivo fluorescence imaging, tumor retention; parameters: species or system nude mice; settings: intratumoral injection, 10 nmol per 50 mm^3
# Text: as §1
# The subcutaneous tumor model was used in fluorescence imaging study in vivo of PA and PQC NFs. PA and PQC NFs (10 nmol per 50 mm^3 tumor) were administered by intratumoral injection. Fluorescence imaging were performed on a ChemiDoc™ MP imaging system (Bio-Rad, USA) at different time points post-injection.
# OSC-3 cells [6] = assay: Colocalization assay (MitoTracker, LysoTracker, CLSM); type: cell-based; settings: 2 μM, 4 h
# Method: OSC-3 cells were treated with PQC NFs (2 μM) for various times (from 5 min to 8 h) or with PA (2 μM) for 4 h, followed by incubation with LysoTracker Green (Thermo Fisher Scientific, USA) and MitoTracker Red (Cell Signaling Technology, USA) for 30 min. Cells were visualized on confocal laser scanning microscopy (CLSM) (Carl Zeiss, Germany) immediately to investigate the subcellular localization. Signals of PQC NPs and PA were observed on the Cy5 channel. LysoTracker and MitoTracker were observed according the manufacturer's instructions. The corresponding Pearson correlation coefficient was calculated by ImageJ software.
# [7] = Characterization of PQC NFs (TEM, DLS); type: physicochemical
# Method: Preparation and Characterization of PQC NFs: Briefly, PQC monomers in ethanol were added dropwise into deionized water under stirring. Ethanol in the solution was removed by vacuum rotary evaporation at 37° C. and the self-assembling PQC NFs were formed spontaneously. The aqueous nanofiber solution (0.02 mg mL^−1) was deposited on copper grids to prepare samples for transmission electron microscope (TEM). The morphology was observed by a Talos L120C TEM (Thermo Fisher Scientific, USA). The UV-Vis and fluorescence spectra were measured by a UV-Vis spectrometer (UV-1800, Shimadzu, Japan) and a fluorescence spectrometer (RF-6000, Shimadzu, Japan), respectively. NIR fluorescence imaging studies was performed by a ChemiDoc™ MP imaging system (Bio-Rad, USA). The ^1O2 production was detected using SOSG (Thermo Fisher Scientific, USA) as an indicator. Briefly, SOSG solution was added into drug solutions in 96 wells plate. […] Fluorescence intensity was determined by a microplate reader (Tecan, Switzerland). The ultrafiltration experiment of PQC NFs were conducted using a centrifuge (10k rpm, 10 min) and a centrifuge tube (10 kDa, Beckman Coulter, USA).
# OSC-3 tumors = assay: Intratumoral ROS production (DCF-DA, ex vivo imaging); type: in vivo, nude mice; settings: laser at days 1, 2, 5, 6 post-injection
# Method: Laser (680 nm) treatment was conduct by a laser device within an energy of 0.2 W cm^−2 for 6 min (Shanghai Xilong Optoelectronics Technology, China). Mice bearing subcutaneous and orthotopic tumors were randomly divided into four groups (n=6): Vehicle (PBS), DQA, PA, and PQC NFs. The drug was intratumorally injected into mice at a dose of 1 mM (10 nmol per 50 mm^3 tumor). Laser treatment was performed for a total of four times, one each on days 1, 2, 5, and 6 post-injection of drugs. The relative tumor value and body weight were recorded every two days. In subcutaneous models, the tumors in the right flank of mice were subjected to laser treatment, while the left tumors were not. In orthotopic models, all tumors were treated with the laser treatment. The temperature of tumor surface was monitored using a thermal camera (FLIR Systems, USA) immediately after laser treatment. ROS production in the tumor after light treatment was also measured using DCF-DA as an indicator. Briefly, the tumor was treated with different drugs via intratumoral injection at first. Then, the mice with tumors were treated with the laser at 1st, 2nd, 5th, and 6th day independently. […] The fluorescence intensity of DCF-DA was quantified by Image J software. […]
# OSC-3 cells [8] = assay: Apoptosis assay (Annexin V-APC/PI); type: cell-based
# Method: Apoptosis assay was performed with the Annexin V-APC/propidium iodide (PI) apoptosis kit (Biolegend, USA). […] […] Cells were stained with the apoptosis kit according to the manufacturer's instructions. All samples of cells were collected for flow cytometry using a BD FACSCanto flow cytometer (BD, USA). Data analysis was accomplished using FlowJo software.
# CSC cells [9] = assay: Seahorse assay (oxygen consumption rate); type: cell-based; settings: 24 h
# Method: Seahorse assay. CSC cells (2×10^4 cells per well) were treated as indicated for 24 h. The Oxygen Consumption Rate (OCR) were measured by the Agilent Seahorse XF analyzer.
# [10] = tested on: CSC spheres (with Stella cell); assay: Sphere growth, CSC spheres with Stella cell; type: cell-based; settings: 5 μM
# Method: Sphere growth. […] CSC cells (800 cells per well) and stella cells (400 cells per well) were plated together in 96-well low-attachment plates and incubated overnight. CSC spheres then were treated with different agents as indicated. Spheres growth was monitored by CLSM (every two days).
# Bxpc-3 and AsPc cells = assay: Cell viability, Bxpc-3 and AsPc; type: cell-based; settings: 72 h treatment
# Method: (§2) Cell viability. Bxpc-3 and AsPc cells (CSC, 5×10^3 cells per well) was plated in 96-well plates, incubated overnight, and then were treated with different concentrations of agents as indicated. After 72 h treatment, cell viability was quantified using the CellTiter-Glo assay.
# [11] = tested on: Pancreatic cancer stem cells (CSC); assay: Cell viability assay, pancreatic cancer stem cells; type: cell-based
# Method: as §2, with “viability assay. Pancreatic cancer stem” for “viability. Bxpc-3 and AsPc”, “assay Cell viability curves and the chemical structures of LM, LND, and m104 are shown in FIG. 31A and FIG. 31B.” for “assay.”
# CSC cells [12] = assay: Mitochondria membrane potential (JC-1), CSC; type: cell-based; settings: 24 h
# Method: Mitochondria membrane potential. JC-1 dye was used as an indicator of mitochondrial membrane potential. Briefly, Cells (2×10^4 cells per well) were treated as indicated for 24 h, washed and cultured with fresh medium. Then 0.5 μg/mL JC-1 was added for another 30 min incubation. Images were captured by CLSM.
# [13] = tested on: Pancreatic cancer stem cells; assay: Sphere formation; type: cell-based; settings: 5 μM, 10 days
# Method: Pancreatic cancer stem cells (3000 cells per well) were mixed with matrigel and medium, and then placed in 24-well plates with pre-embedded matrigel and medium. After 24 h incubation, CSC cells were then treated with different agents as indicated and cultured for 10 days. The cells were imaged as shown in FIG. 33A and the sphere diameters were calculated by ImageJ and are plotted in FIG. 33B.
# [14] = tested on: Pancreatic cancer stem cells; assay: Cell growth assay; type: cell-based; settings: 2 μM
# Method: Cell growth. Pancreatic cancer stem cells were plated in 6-well plates (50,000 cell per well) and treated as indicated and were counted manually every 24 h. The cell growth is plotted over time in FIG. 31C.
Molecule,morphological changes in mitochondria (TEM) (OSC-3 cells [1]; with light),H&E staining of tumors (subcutaneous OSC-3 tumor [2]),antitumor effect (subcutaneous OSC-3 tumor [2]),antitumor efficacy (subcutaneous OSC-3 tumor [2]),anticancer effect (OSC-3 cells [3]),mitochondrial membrane potential change (JC-1) (OSC-3 cells [4]),oxygen consumption rate (Mito stress test) (CSC cells [9]),CSC tumorsphere (with Stella cell) growth [10],tumorsphere formation [13],also measured
"Cc1cc(N)c2ccccc2[n+]1CCCCCCCCCC[n+]1c(C)cc(N)c2ccccc21 [DQA, dequalinium]",morphologically changed mitochondria with and without light treatment,no significant cell death,did not show an obvious antitumor effect,did not show significant antitumor efficacy,did not show obvious anticancer effects,not effective enough to cause a signal change,–,–,–,"IC50 (OSC-3 cells [3]; OSC-3, absence of light, 24 h + 24 h): 3000 nM"
pheophorbide a [PA],only caused some mitochondrial swelling,only a small portion of tumor tissue showed apoptosis/necrosis,effectively inhibited tumor growth but did not shrink the tumors,did not show significant antitumor efficacy,did not show obvious anticancer effects,not effective enough to cause a signal change,–,–,–,"morphological changes in mitochondria (TEM) (OSC-3 cells [1]; without light): healthy mitochondria; cytotoxicity (OSC-3 cells [3]; OSC-3, absence of light): did not show cytotoxicity even at 100 uM; IC50 (OSC-3 cells [3]; OSC-3, light treatment 30 mW cm^-2 for 30 s, 633 nm): 2570 nM; fluorescence within tumors over time (subcutaneous OSC-3 tumor [5]): nearly undetectable at the 4th day post-injection; subcellular colocalization (OSC-3 cells [6]): low-level colocalization with mitochondria or lysosomes; surface charge [7]: −11.5±1.3 mV; ROS levels in tumors (OSC-3 tumors): high at 24 h post-injection and decreased quickly at later time points; apoptosis induction (OSC-3 cells [8]; 0.2 μM, with light): failed to induce apoptosis; Annexin V positive population (OSC-3 cells [8]; 2 μM, 24 h, light, another 12 h): 19.3%"
Cc1cc(N)c2ccccc2[n+]1CCCCCCCCCCNC(=O)c1nn(Cc2ccc(Cl)cc2Cl)c2ccccc12 [LM],–,–,–,–,–,–,decrease in basal mitochondrial respiration and spare respiration capacity,inhibits CSC tumorsphere (with Stella cell) growth,blocked tumorsphere formation in CSCs,"potency on other pancreatic tumor cells (Bxpc-3 and AsPc cells): more potent than LND, m104, mixture of LND and m104; IC50 ([11]; 72 h): 460 ± 50 nM; mitochondrial membrane potential (JC-1) (CSC cells [12]): decreased Δψm; cell growth [14]: inhibitory effects"
"O=C(O)c1nn(Cc2ccc(Cl)cc2Cl)c2ccccc12 [LND, 1-(2,4-dichlorobenzyl)-1H-indazole-3-carboxylic acid]",–,–,–,–,–,–,no significant impact on OCRs,no effect,limited inhibition,"IC50 ([11]; CSC, 72 h treatment, read-out: IC50): 30000 ± 2200 nM"

# Source: patent US20250269031A1, “MITOCHONDRIA TARGETING QUINOLINIUM-DRUG CONJUGATES AND THEIR SELF-ASSEMBLING NANOFORMULATIONS FOR CANCER THERAPY” (THE REGENTS OF THE UNIVERSITY OF CALIFORNIA, priority 2020, published 2025)
